Laboratory results reported in patent US12458651B2, “Compounds and their uses for alleviating menopause-associated symptoms” (ESTETRA SRL, priority 2018, dated 2025).

What was measured:
Type in all cases: in vivo
post-menopausal women [1] = assay: Dose-finding study: hot flush weekly weighted score
Method: Further, the terms “Hot Flush Weekly Weighted Score”, as used herein, corresponds to a score taking into account frequency and severity which is calculated by using the severity score (as calculated above): [(1×No. of mild VMS)+(2×No. of moderate VMS)+(3×No. of severe VMS)] during a 7 day period.
Such a weighted score was for example used by Notelovitz et al. (“Initial 17β-Estradiol Dose for Treating Vasomotor Symptoms”; Obstetrics and Gynaecology, Vol. 95(5), May 2000, p. 726-731). This score was used to generate the data included in Example 1 further below, under section A. c) “Hot Flush Weekly Weighted Score”.

post-menopausal women [2] = assay: GSM symptom: vaginal pain associated with sexual activity
Method: Change from baseline to week 12 in the following GSM symptoms (VVA subject self-assessment) were recorded: • a) Vaginal dryness (sensation of dryness or burning in the vagina; none=0 mild=1, moderate=2 or severe=3):
• d) Vaginal pain associated with sexual activity (sensation of pain with sexual intercourse none=0, mild=1, moderate=2 or severe=3): […]

[3] = system: C-terminal telopeptide (CTX-1); assay: C-terminal telopeptide (CTX-1), marker of bone resorption

## C[C@]12CC[C@@H]3c4ccc(O)cc4CC[C@H]3[C@@H]1[C@@H](O)[C@@H](O)[C@@H]2O [Estetrol, 1,3,5 (10)-estratrien-3,15alpha,16alpha,17beta-tetrol]
post-menopausal women [1]; 10 mg per day, week 0
  Relative change (% from baseline) in hot flush weekly weighted score, mean: 0%
  Relative change (% from baseline) in hot flush weekly weighted score, mean (section B analysis): 0%
post-menopausal women [1]; 10 mg per day, week 1
  Relative change (% from baseline) in hot flush weekly weighted score, mean (section B analysis): −20%
post-menopausal women [1]; 10 mg per day, week 2
  Relative change (% from baseline) in hot flush weekly weighted score, mean (section B analysis): −34%
post-menopausal women [1]; 10 mg per day, week 3
  Relative change (% from baseline) in hot flush weekly weighted score, mean (section B analysis): −46%
post-menopausal women [1]; 10 mg per day, week 4
  Relative change (% from baseline) in hot flush weekly weighted score, mean (section B analysis): −53%
post-menopausal women [1]; 10 mg per day, week 5
  Relative change (% from baseline) in hot flush weekly weighted score, mean (section B analysis): −57%
post-menopausal women [1]; 10 mg per day, week 6
  Relative change (% from baseline) in hot flush weekly weighted score, mean (section B analysis): −62%
post-menopausal women [1]; 10 mg per day, week 7
  Relative change (% from baseline) in hot flush weekly weighted score, mean (section B analysis): −64%
post-menopausal women [1]; 10 mg per day, week 8
  Relative change (% from baseline) in hot flush weekly weighted score, mean (section B analysis): −66%
post-menopausal women [1]; 10 mg per day, week 9
  Relative change (% from baseline) in hot flush weekly weighted score, mean (section B analysis): −66%
post-menopausal women [1]; 10 mg per day, week 10
  Relative change (% from baseline) in hot flush weekly weighted score, mean (section B analysis): −68%
post-menopausal women [1]; 10 mg per day, week 11
  Relative change (% from baseline) in hot flush weekly weighted score, mean (section B analysis): −68%
post-menopausal women [1]; 10 mg per day, week 12
  Relative change (% from baseline) in hot flush weekly weighted score, mean (section B analysis): −69%
post-menopausal women [1]; 15 mg per day, week 0
  Relative change (% from baseline) in hot flush weekly weighted score, mean: 0%
  Relative change (% from baseline) in hot flush weekly weighted score, mean (section B analysis): 0%
post-menopausal women [1]; 15 mg per day, week 1
  Relative change (% from baseline) in hot flush weekly weighted score, mean (section B analysis): −22%
post-menopausal women [1]; 15 mg per day, week 2
  Relative change (% from baseline) in hot flush weekly weighted score, mean (section B analysis): −45%
post-menopausal women [1]; 15 mg per day, week 3
  Relative change (% from baseline) in hot flush weekly weighted score, mean (section B analysis): −56%
post-menopausal women [1]; 15 mg per day, week 4
  Relative change (% from baseline) in hot flush weekly weighted score, mean (section B analysis): −66%
post-menopausal women [1]; 15 mg per day, week 5
  Relative change (% from baseline) in hot flush weekly weighted score, mean (section B analysis): −70%
post-menopausal women [1]; 15 mg per day, week 6
  Relative change (% from baseline) in hot flush weekly weighted score, mean (section B analysis): −72%
post-menopausal women [1]; 15 mg per day, week 7
  Relative change (% from baseline) in hot flush weekly weighted score, mean (section B analysis): −75%
post-menopausal women [1]; 15 mg per day, week 8
  Relative change (% from baseline) in hot flush weekly weighted score, mean (section B analysis): −76%
post-menopausal women [1]; 15 mg per day, week 9
  Relative change (% from baseline) in hot flush weekly weighted score, mean (section B analysis): −78%
post-menopausal women [1]; 15 mg per day, week 10
  Relative change (% from baseline) in hot flush weekly weighted score, mean (section B analysis): −77%
post-menopausal women [1]; 15 mg per day, week 11
  Relative change (% from baseline) in hot flush weekly weighted score, mean (section B analysis): −79%
post-menopausal women [1]; 15 mg per day, week 12
  Relative change (% from baseline) in hot flush weekly weighted score, mean (section B analysis): −81%
post-menopausal women [2]; E4 2.5 mg, Baseline
  Vaginal pain associated with sexual activity score (none=0 to severe=3), mean ± SD: 0.6 ± 0.77
post-menopausal women [2]; E4 2.5 mg, Week 12
  Vaginal pain associated with sexual activity score (none=0 to severe=3), mean ± SD: 0.3 ± 0.73
post-menopausal women [2]; E4 5 mg, Baseline
  Vaginal pain associated with sexual activity score (none=0 to severe=3), mean ± SD: 1 ± 1.07
post-menopausal women [2]; E4 5 mg, Week 12
  Vaginal pain associated with sexual activity score (none=0 to severe=3), mean ± SD: 0.5 ± 0.78
post-menopausal women [2]; E4 10 mg, Baseline
  Vaginal pain associated with sexual activity score (none=0 to severe=3), mean ± SD: 0.6 ± 0.77
post-menopausal women [2]; E4 10 mg, Week 12
  Vaginal pain associated with sexual activity score (none=0 to severe=3), mean ± SD: 0.2 ± 0.36
post-menopausal women [2]; E4 15 mg, Baseline
  Vaginal pain associated with sexual activity score (none=0 to severe=3), mean ± SD: 0.7 ± 0.90
post-menopausal women [2]; E4 15 mg, Week 12
  Vaginal pain associated with sexual activity score (none=0 to severe=3), mean ± SD: 0.3 ± 0.54
[3]; 20 mg daily dose, after 28 days of treatment
  Bone resorption (CTX-1), decrease compared with 15 mg daily dose: more pronounced
[3]; E4 15 mg daily
  C-Terminal Telopeptide (CTX-1), Baseline, Mean: 416.0 ng/L
  C-Terminal Telopeptide (CTX-1), Baseline, Median: 339.0 ng/L
[3]; E4 15 mg daily, after 12 weeks
  C-Terminal Telopeptide (CTX-1), End Of Treatment Actual Change from Baseline, Mean: -95.0 ng/L
  C-Terminal Telopeptide (CTX-1), End Of Treatment Actual Change from Baseline, Median: -142.5 ng/L
  C-Terminal Telopeptide (CTX-1), End Of Treatment Actual Value, Mean: 320.9 ng/L
  C-Terminal Telopeptide (CTX-1), End Of Treatment Actual Value, Median: 197.5 ng/L
